The text below walks through data of US20230240290A1, “USE OF (Z)-3-HEXENYL ESTERS AND METHOD FOR PROTECTING PLANTS AGAINST PESTS” (UNIVERSITAT POLITÈCNICA DE VALÈNCIA, priority 2020, published 2023).

The test system of one series is Tuta absoluta. Conditions: in vivo. How it is done: Two consecutive experiments were performed to assess the effect of exposure to both volatiles on T. absoluta. The first experiment studied the effect on the laying of T absoluta. The selected eggs laid in the first experiment were later used in the second experiment to study the mortality of immature T. absoluta specimens developed in plants exposed to (Z)-3-hexenyl propanoate. The same three treatments described above for T. urticae were also assayed for T. absoluta. The laying of T. absoluta was assessed in 8 tomato plants (cv. Moneymaker) per treatment. Each of the plants was isolated inside a plastic cage (60×60×60 cm) (BugDorm-2) and kept in a climatic chamber at 25±2° C., 65±5% HR, 14:10 (L:D) h photoperiod following the same assay distribution described for T. urticae. Inside each cage (replica), 2 adult pairs were released from T. absoluta (males and females) and left undisturbed for 72 hours. After this time, T. absoluta adults were removed, and the number of eggs was counted.
To study the mortality of T. absoluta in the plants exposed to the 3 treatments described above, 6 T. absoluta eggs per plant were equally distributed on all the leaves with the help of a fine brush. […] Mortality of T. absoluta was assessed in 8 tomato plants (cv. Moneymaker) per treatment. […] As soon as the adults began to emerge, they were counted and removed daily from the cages.

Series [1] has as its system PIN2 (marker gene for the JA signaling pathway). The series is described as follows: Field (commercial greenhouse) assay, transcriptional response of PIN2 in tomato plants. The series is classed as in vivo, tomato cv Raf. As to conditions: LD dispenser every 20 m2, at 30 and 60 days. How it is done:
To know the behavior of the dispensers loaded with (Z)-3-hexenyl propionate under real cultivation conditions, four commercial greenhouses for tomato cv Raf located in Xilxes (Castellón province), with a history of problems with T. absoluta contamination at the end of winter, were selected. An experimental design of randomized blocks was carried out where each greenhouse was considered a block with two treatments per block and 4 repetitions per treatment. […]
Twenty plants randomly chosen by repetition were sampled weekly for 11 weeks, beginning 30 Jan. […] First, the number of leaflets infested by T. absoluta per plant was counted. Then the number of N. tenuis (adults and nymphs) throughout the apical third of each plant (leaves, flowers and shoots) was counted. Following the methodology described above, 6 samples were taken from the apical part of each plant per repetition, and these samples were immediately introduced into liquid nitrogen to quantify the expression of the PR1 and PIN2 genes (described in Example 1 and Example 2). The expression of these genes was quantified one day before, 4, and 8 weeks after hanging the dispensers in the greenhouses.

With `CC/C=C\CCOC(=O)CC` [(Z)-3-hexenyl propanoate], the “Mortality from T. absoluta egg to adult” value with Tuta absoluta is “around 80%”. Further, the “Expression of PIN2 compared to plants in the control zone” value in series [1] is listed as “significantly higher”.
